Laboratory results as given in US20160340322A1 (NISSAN CHEMICAL INDUSTRIES, LTD., priority 2013, published 2016).

Biological target: T1, Human T-type calcium channel (Cav 3.2) (Homo sapiens, UniProt O95180)
T1 construct: Edward Perez-Reyes, University of Virginia, USA; host or cells: HEK293
Test: Calcium Influx Inhibition Assay
Assay type: cell-based
Conditions: human T-type calcium channel (Cav 3.2) expressing HEK293 cells; FLIPR Calcium 4 fluorescence; 30 min compound incubation; read-out: T-type calcium channel inhibition concentration IC50
Procedure: 1. Calcium Influx Inhibition Assay Human T-type calcium channel (Cav 3.2) expressing HEK293 cells were introduced from Prof. Edward Perez-Reyes, University of Virginia, USA. The calcium-sensitive fluorescent dye used was FLIPR Calcium 4 Assay Kit (Molecular Devices). To a black 96-well plate with a clear bottom coated with type I collagen, the human T-type calcium channel (Cav 3.2) expressing HEK293 cells were seeded and cultured overnight, and the culture medium was removed. A solution of the calcium-sensitive fluorescent dye was added, and the resultant plate was incubated at 37° C. in an atmosphere of 5% carbon dioxide for 30 minutes. To the plate, a diluted solution of a compound was added, and subjected to further incubation at 37° C. in an atmosphere of 5% carbon dioxide for 30 minutes. While fluorescence was continuously analyzed from the bottom with a FlexStation 3 (Molecular Devices), a calcium solution was added. […] Based on the rise value in the fluorescence from the base line, the inhibition percentage was calculated. The logarithms of compound concentrations were plotted with respect to the inhibition activities to obtain an IC50 value.

T1 sequence (O95180 whole entry): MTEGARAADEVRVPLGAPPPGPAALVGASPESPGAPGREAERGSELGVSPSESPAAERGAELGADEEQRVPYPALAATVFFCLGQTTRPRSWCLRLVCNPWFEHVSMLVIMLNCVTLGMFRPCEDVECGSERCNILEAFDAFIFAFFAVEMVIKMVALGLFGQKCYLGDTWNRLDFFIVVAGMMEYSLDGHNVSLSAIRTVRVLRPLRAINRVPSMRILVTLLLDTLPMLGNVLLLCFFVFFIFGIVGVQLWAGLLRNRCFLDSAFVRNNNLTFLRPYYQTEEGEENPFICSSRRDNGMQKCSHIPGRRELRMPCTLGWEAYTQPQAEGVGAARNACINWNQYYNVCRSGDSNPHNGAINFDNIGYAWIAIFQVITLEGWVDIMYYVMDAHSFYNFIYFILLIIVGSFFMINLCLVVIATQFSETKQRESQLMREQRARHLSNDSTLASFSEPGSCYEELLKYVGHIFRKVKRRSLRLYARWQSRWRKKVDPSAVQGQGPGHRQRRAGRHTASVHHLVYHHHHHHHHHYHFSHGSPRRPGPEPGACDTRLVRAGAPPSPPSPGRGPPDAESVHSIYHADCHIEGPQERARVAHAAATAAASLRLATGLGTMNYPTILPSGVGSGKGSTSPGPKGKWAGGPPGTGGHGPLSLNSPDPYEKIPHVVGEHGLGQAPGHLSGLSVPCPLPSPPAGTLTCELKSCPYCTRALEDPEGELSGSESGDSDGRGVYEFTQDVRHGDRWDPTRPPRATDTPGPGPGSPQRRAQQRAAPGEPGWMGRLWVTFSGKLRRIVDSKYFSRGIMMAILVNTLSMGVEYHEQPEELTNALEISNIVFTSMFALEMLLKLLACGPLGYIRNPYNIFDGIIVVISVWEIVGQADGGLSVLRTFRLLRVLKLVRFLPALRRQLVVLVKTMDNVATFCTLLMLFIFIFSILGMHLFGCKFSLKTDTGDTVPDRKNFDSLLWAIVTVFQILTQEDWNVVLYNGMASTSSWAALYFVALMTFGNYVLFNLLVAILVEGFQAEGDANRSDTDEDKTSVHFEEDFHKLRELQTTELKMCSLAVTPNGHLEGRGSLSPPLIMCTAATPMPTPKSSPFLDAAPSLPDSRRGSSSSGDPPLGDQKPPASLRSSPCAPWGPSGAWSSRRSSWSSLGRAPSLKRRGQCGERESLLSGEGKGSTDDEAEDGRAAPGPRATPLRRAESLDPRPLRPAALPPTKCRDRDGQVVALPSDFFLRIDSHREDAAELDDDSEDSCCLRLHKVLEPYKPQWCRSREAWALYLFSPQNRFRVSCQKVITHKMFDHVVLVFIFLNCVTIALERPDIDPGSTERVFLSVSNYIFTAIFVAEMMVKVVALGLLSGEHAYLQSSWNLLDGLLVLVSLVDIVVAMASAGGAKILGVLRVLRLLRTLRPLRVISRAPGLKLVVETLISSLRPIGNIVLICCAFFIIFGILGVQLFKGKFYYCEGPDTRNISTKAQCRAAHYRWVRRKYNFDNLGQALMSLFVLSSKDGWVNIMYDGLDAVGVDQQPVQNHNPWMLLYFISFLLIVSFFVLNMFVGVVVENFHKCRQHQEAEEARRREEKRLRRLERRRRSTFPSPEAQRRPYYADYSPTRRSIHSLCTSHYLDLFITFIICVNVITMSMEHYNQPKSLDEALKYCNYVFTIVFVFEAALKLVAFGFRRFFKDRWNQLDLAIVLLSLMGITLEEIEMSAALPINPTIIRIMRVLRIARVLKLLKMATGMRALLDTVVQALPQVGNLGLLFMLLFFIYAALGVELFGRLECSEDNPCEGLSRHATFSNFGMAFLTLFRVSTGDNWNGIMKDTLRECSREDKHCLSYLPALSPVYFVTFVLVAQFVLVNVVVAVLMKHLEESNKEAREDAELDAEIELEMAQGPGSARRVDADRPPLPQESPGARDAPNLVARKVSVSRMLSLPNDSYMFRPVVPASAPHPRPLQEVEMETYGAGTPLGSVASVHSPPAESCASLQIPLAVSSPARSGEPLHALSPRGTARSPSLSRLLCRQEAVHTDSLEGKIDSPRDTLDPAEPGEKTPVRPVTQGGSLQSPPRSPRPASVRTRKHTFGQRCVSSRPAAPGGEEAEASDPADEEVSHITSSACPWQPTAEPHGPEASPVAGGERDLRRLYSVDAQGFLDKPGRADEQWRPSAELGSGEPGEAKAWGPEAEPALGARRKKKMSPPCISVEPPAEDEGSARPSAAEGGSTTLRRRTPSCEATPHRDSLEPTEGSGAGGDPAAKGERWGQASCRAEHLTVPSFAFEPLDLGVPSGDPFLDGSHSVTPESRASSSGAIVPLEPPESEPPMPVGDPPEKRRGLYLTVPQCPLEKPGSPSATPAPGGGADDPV

| SMILES | IC50 [nM] |
| --- | --- |
| O=c1nc(N2CCc3c([nH]c4cc(F)ccc34)C2)cnn1Cc1ccc(C(F)(F)F)s1 [Synthesis Example 9, 5-(7-Fluoro-3,4-dihydro-1H-pyrido[3,4-b]indol-2(9H)-yl)-2-{[5-(trifluoromethyl)thiophen-2-yl]methyl}-1,2,4-triazin-3(2H)-one] | 17 |
| O=c1nc(N2CCN(c3ccc(F)c(Cl)c3)CC2)cnn1Cc1ccc(C(F)(F)F)s1 [Synthesis Example 34] | 61 |
| O=c1nc(N2Cc3ccc(OC(F)F)cc3C(O)C2)cnn1Cc1ccc(C(F)(F)F)s1 (centres unmarked) | 64 |
| Cc1ccc(N2CCN(c3cnn(Cc4ccc(C(F)(F)F)s4)c(=O)n3)CC2)nc1 [Synthesis Example 8, 5-[4-(5-methylpyridin-2-yl)piperazin-1-yl]-2-{[5-(trifluoromethyl)thiophene-2-yl]methyl}-1,2,4-triazin-3(2H)-one] | 210 |
| Cc1cc(N2CCN(c3cnn(Cc4cnc(C(F)(F)F)s4)c(=O)n3)CC2)cs1 [Synthesis Example 23, 5-[4-(5-Methylthiophen-3-yl)piperazin-1-yl]-2-{[2-(trifluoromethyl)thiazol-5-yl]methyl}-1,2,4-triazin-3(2H)-one] | 670 |
| Cc1cc(F)ccc1C1=CCN(c2cnn(Cc3ccc(C(F)(F)F)s3)c(=O)n2)C[C@@H]1O [Synthesis Example 30, (R)-5-[4-(4-Fluoro-2-methylphenyl)-5-hydroxy-5,6-dihydropyridin-1(2H)-yl]-2-{[5-(trifluoromethyl)thiophen-2-yl]methyl}-1,2,4-triazin-3(2H)-one] | 72 |
| Cc1ccc(N2CCN(c3cnn(Cc4cnc(C(F)(F)F)s4)c(=O)n3)CC2)nc1 [Synthesis Example 13, 5-[4-(5-Methylpyridin-2-yl)piperazin-1-yl]-2-{[2-(trifluoromethyl)thiazol-5-yl]methyl}-1,2,4-triazine-3(2H)-one] | 6100 |

More lines, in order of falling IC50, values ahead:

| IC50 [nM] | SMILES |
| --- | --- |
| 1000 | O=c1nc(N2Cc3ccc(OC(F)F)cc3C(O)C2)cnn1Cc1cnc(C(F)(F)F)s1 (centres unmarked) [Synthesis Example 55] |
| 190 | O=c1nc(N2CCN(c3ccc(Cl)cc3)CC2)cnn1Cc1cnc(C(F)(F)F)s1 [Synthesis Example 20, 5-[4-(4-Chlorophenyl)piperazin-1-yl]-2-{[2-(trifluoromethyl)thiazol-5-yl]methyl}-1,2,4-triazin-3(2H)-one] |
| 110 | O=c1nc(N2CC=C(c3ccc(F)cc3)[C@@H](O)C2)cnn1Cn1ccc(C(F)(F)F)n1 [Synthesis Example 46, (R)-5-[4-(4-Fluorophenyl)-5-hydroxy-5,6-dihydropyridin-(2H)-yl]-2-{[3-(trifluoromethyl)-1H-pyrazol-1-yl]methyl}-1,2,4-triazin-3(2H)-one] |
| 7.9 | Cc1ccc(C2=CCN(c3cnn(Cc4ccc(C(F)(F)F)s4)c(=O)n3)C[C@@H]2O)cc1F [Synthesis Example 52, (R)-5-[4-(3-Fluoro-4-methylphenyl)-5-hydroxy-5,6-dihydropyridin-1(2H)-yl]-2-{[5-(trifluoromethyl)thiophen-2-yl]methyl}-1,2,4-triazin-3(2H)-one] |
| 6.4 | CC(C)(C)c1ccc(Cn2ncc(N3CC=C(c4ccc(F)cc4)[C@@H](O)C3)nc2=O)s1 [Synthesis Example 48, (R)-2-{[5-(Tert-butyl)thiophen-2-yl]methyl}-5-[4-(4-fluorophenyl)-5-hydroxy-5,6-dihydropyridin-(2H)-yl]-1,2,4-triazin-3(2H)-one] |
| 4.8 | Cc1ccc(C2=CCN(c3cnn(Cc4ccc(C(F)(F)F)s4)c(=O)n3)C[C@@H]2O)o1 [Synthesis Example 37, (R)-5-[5-Hydroxy-4-(5-methylfuran-2-yl)-5,6-dihydropyridin-(2H)-yl]-2-{[5-(trifluoromethyl)thiophen-2-yl]methyl}-1,2,4-triazin-3(2H)-one] |
| 1 | Cc1cc(C2=CCN(c3cnn(Cc4ccc(C(F)(F)F)s4)c(=O)n3)C[C@@H]2O)cs1 [Synthesis Example 15, (R)-5-[5-Hydroxy-4-(5-methylthiophen-3-yl)-5,6-dihydropyridin-1(2H)-yl]-2-{[5-(trifluoromethyl)thiophen-2-yl]methyl}-1,2,4-triazin-3(2H)-one] |
